In patent publication US10676514B2, “CDCA1-derived peptide and vaccine containing same” (ONCOTHERAPY SCIENCE, INC., priority 2014, dated 2020):
Entries after “also recorded” stand apart in the source; their conditions may differ.

Assays:
peptide-pulsed C1R-A03 = assay: IFN-gamma ELISPOT assay of peptide-induced CTLs (HLA-A*0301); assay type: cell-based, human; settings: CTLs induced from HLA-A*0301-positive donors, peptide-pulsed C1R-A03 vs control
Source text: Monocyte-derived dendritic cells (DCs) were used as the antigen-presenting cell to induce a cytotoxic T lymphocyte (CTL) response against peptides presented on human leukocyte antigens (HLAs). As described in the other sections, DCs were generated in vitro (Nakahara S et al., Cancer Res 2003, 63(14): 4112-8). Specifically, peripheral-blood mononuclear cells isolated from healthy volunteers (HLA-A*0301-positive) with the Ficoll-Paque plus solution (Pharmacia) were separated by attaching to plastic tissue culture dishes (Becton Dickinson) and concentrated as a monocyte fraction. The monocyte-concentrated population was cultured in the presence of 1000 IU/ml granulocyte macrophage colony-stimulating factor (R&D System) and 1000 IU/ml interleukin(IL)-4 (R&D System) in an AIM-V medium (Invitrogen) containing 2% heat-inactivated autologous serum (AS). After seven days of culturing, the cytokine-induced DCs were pulsed with 20 micro-g/ml each of the synthesized peptides in an AIM-V medium at 37 degrees C. for three hours in the presence of 3 micro-g/ml beta 2-microglobulin. The generated cells appeared to express on their cell surface DC-associated molecules such as CD80, CD83, CD86 and HLA class II (data not shown). Next, these peptide-pulsed DCs were inactivated by X-ray irradiation (20 Gy), and mixed in a 1:20 ratio with autologous CD8^+ T cells obtained by positive selection using the CD8 Positive Isolation Kit (Dynal). These culture products were seeded in a 48-well plate (Corning). Each well was made to contain 1.5×10^4 peptide-pulsed DCs, 3×10^5 CD8^+ T cells and 10 ng/ml IL-7 (R&D System) in 0.5 ml of the AIM-V/2% AS medium. Three days later, these culture products were added with a final concentration of 20 IU/ml IL-2 (CHIRON). On day 7 and day 14, T cells were further stimulated with peptide-pulsed autologous DCs. The DCs were prepared every time by the same method as above. On day 21, after the third peptide stimulation, CTLs were examined against the peptide-pulsed C1R-A03 by a human interferon (IFN)-gamma enzyme-linked immunospot (ELISPOT) assay (Tanaka H et al., Br J Cancer 2001, 84(1): 94-9; Umano Y et al., Br J Cancer 2001, 84(8): 1052-7; Uchida N et al., Clin Cancer Res 2004, 10(24): 8577-86; Suda T et al., Cancer Sci 2006, 97(5): 411-9; Watanabe T et al., Cancer Sci 2005, 96(8): 498-506).
Specifically, peptide-pulsed C1R-A03 (1×10^4 cells/well) was prepared as the stimulator cell. The induced CTLs, i.e., CTL lines and CTL clones, were used as the responder cell. The IFN-gamma ELISPOT assay and IFN-gamma ELISA were performed according to the manufacturer's manual.

[1] = test system: peptide-pulsed C1R-A11 cells; assay: IFN-gamma ELISPOT assay of peptide-induced CTLs (HLA-A*1101); assay type: cell-based, human; settings: CTLs induced from HLA-A*1101-positive donors, peptide-pulsed C1R-A11 vs control
Method in brief: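 CD8+ T cells from HLA-A*1101-positive healthy donors stimulated three times (days 0, 7, 14) with autologous monocyte-derived DCs pulsed with 20 μg/ml peptide, with IL-7 and IL-2. On day 21, CTL lines and clones tested by IFN-γ ELISPOT against peptide-pulsed C1R-A11 stimulators (1×10^4 cells/well).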

Row | Sequence | peptide-specific CTL activity (IFN-gamma production) (peptide-pulsed C1R-A03; listed as CDCA1-A03-10-400) | peptide-specific CTL activity (IFN-gamma production) ([1]; listed as CDCA1-A11-10-400) | peptide-specific CTL activity (IFN-gamma production) (peptide-pulsed C1R-A03; listed as CDCA1-A03-9-219) | peptide-specific CTL activity (IFN-gamma production) ([1]; listed as CDCA1-A11-9-219)
1 | KIKLGIQQLK (a peptide derived from CDCA1) [SEQ ID NO: 38] | potent IFN-gamma production; also recorded: significant specific CTL activity | potent IFN-gamma production; also recorded: significant specific CTL activity | – | –
2 | KTKRLNELK (a peptide derived from CDCA1) [SEQ ID NO: 7] | – | – | potent IFN-gamma production; also recorded: significant specific CTL activity | potent IFN-gamma production; also recorded: significant specific CTL activity
